Laboratory results reported in PMC8333425, “Discovery of a dual Ras and ARF6 inhibitor from a GPCR endocytosis screen” (Nature Communications, 2021).
Values after ≈ are worked out from the molar mass of the structure shown. Values joined by “and” are separate entries in the source; they are usually repeats but may differ in a detail not shown here. Equal entries are not always repeated.

Tests used:
[1] = test system: MDA-MB-231 cells; assay: Cell proliferation assay (IncuCyte confluence), MDA-MB-231; assay type: cell-based, human
Protocol: Cell proliferation was measured by a label-free, non-invasive cellular confluence assay using IncuCyte Live-Cell Imaging Systems (Essen Bioscience, Ann Arbor, MI, USA). MDA-MB-231 breast cancer and A549 lung carcinomas cells (1500 cells in 150 μl/well) were seeded overnight on a clear 96-well plate. Twenty-four hours later, the cells were treated with 0.1% DMSO, or different concentrations of Rasarfin (as indicated), or 10 µM of 21.4 or 21.8 for 96 h total. The plate was placed in an XL-3 incubation chamber maintained at 37 °C and the cells were photographed using a ×4 objective, every 3 h for 4 days. Cell confluence was calculated using IncuCyte S3 software (2019A) and cell proliferation was expressed as an increase in the percentage of confluence. Experiments were done in triplicate and repeated three times.

[2] = Maximal solubility concentration; assay type: physicochemical
[3] = test system: ERK1/2 activation by AT1R; assay: Western blot of AT1R-mediated ERK1/2 phosphorylation; assay type: cell-based, human; settings: for p-ERK1/2 over ERK1/2, normalized to basal (0 min), AT1R: Comp 21 50 μM; for p-ERK1/2 over ERK1/2, normalized to basal (0 min), AT1R / ERK 1/2 activation, AT1R (p-ERK1/2 over ERK1/2, fold over basal): individual experiments
Protocol: HEK293SL cells (10^5 cells per well) were seeded in a poly-L-lysine-coated six-well plate and transiently transfected with 3 μg Flag-AT1R, HA-B2R or HA-β2AR and/or 500 ng Flag-MEK1-WT, Flag-MEK1-DD, Flag-BRAF-WT, Flag-BRAF-V600E, Flag-K-Ras-WT, Flag-K-Ras-G12V, HA-ARF6-WT, or HA-ARF6-T27N. Gαq/11 KO and βarr1/2 KO cells were seeded onto 100 mm dishes at a density of 10^6 cells per dish. Next day, cells were transfected with 3 μg AT1R alone or along with 500 ng of β-arrestin2 using PEI. After 18 h of transfection, cells were detached and re-seeded onto poly-L-lysine coated 12-well plates (~1.5–2 × 10^5cells/well) for subsequent experiments. Forty-eight hours post transfection, in a 37 °C water bath, cells were serum-starved for 30 min, pretreated with DMSO (0.1%) or compound 21/Rasarfin (50 µM or at indicated concentrations) for 30 min, then stimulated or not with the indicated ligand [AngII (1 µM), BK (1 µM), Iso (10 µM) or EGF (100 ng/ml)] at indicated times. Cells were put on ice, washed with PBS and solubilized in 2x laemmli buffer (250 mM Tris–HCl pH 6.8, 2% SDS (w/v), 10% glycerol (v/v), 0.01% bromophenol blue (w/v) and 5% β-mercaptoethanol (v/v)) by heating at 65 °C for 15 min. Lysates were resolved on 10 or 14% SDS-PAGE, transferred to nitrocellulose membranes and immunoblotted for p-ERK1/2, ERK1/2, p-Akt, Akt, HA, Myc, β-actin or FLAG. ImageLab 5.2 software was used to quantify the digital blots as fold of the phosphorylated protein over total protein, which were then normalized as indicated in the figure legends. Uncropped immunoblots are provided in the Source Data file.

For `CC(C)C(=O)N1CCN(c2ccc(NC(=O)c3cc4ccccc4o3)cc2Cl)CC1` [Compound 21], the “MDA-MB-231 cell growth (confluency)” value ([1]; various concentrations of Rasarfin) was “dose-dependent reduction in cell growth over time”, the solubility ([2]; DMSO, organic solvent or mixture, read-out: maximum solubility concentration in DMSO) was ~50 µM (≈ 21.3 µg/mL) and the “AngII-mediated phosphorylation of ERK1/2” value ([3]; 50 μM) was “totally inhibited”. For the same compound, the “p-ERK1/2 over ERK1/2, normalized to basal (0 min), AT1R” value (from here on “p-ERK1/2 over ERK1/2, normalized”) ([3]; time 0 min) was 1, the “p-ERK1/2 over ERK1/2, normalized” value ([3]; time 2 min) was 0.1554 and 0.4142 and 0.5216 and 8.819 and the “p-ERK1/2 over ERK1/2, normalized” value ([3]; time 5 min) was 0.1741 and 0.568 and 0.6273 and 10.8319. For the same compound, the “Mean Diff. DMSO vs. compound of P-ERK/ERK (fold over Basal) (Dunnett's multiple comparisons test)” value ([3]; Fig.8b) was 6.88, the IC50 ([3]; Homo sapiens, read-out: IC50 for inhibition of ERK1/2 activation by AT1R) was 5 µM and the “ERK 1/2 activation, AT1R (p-ERK1/2 over ERK1/2, fold over basal)” value ([3]; Log [Comp 21] (M) -4.3) was 17.8621 percent compared to DMSO and 9.459 percent compared to DMSO and 11.994 percent compared to DMSO. The “ERK 1/2 activation, AT1R (p-ERK1/2 over ERK1/2, fold over basal)” value ([3]; Log [Comp 21] (M) -5) was 18.3493 percent compared to DMSO and 17.9264 percent compared to DMSO and 17.6879 percent compared to DMSO, the “ERK 1/2 activation, AT1R (p-ERK1/2 over ERK1/2, fold over basal)” value ([3]; Log [Comp 21] (M) -5.3) was 58.8009 percent compared to DMSO and 49.3558 percent compared to DMSO and 49.3771 percent compared to DMSO and the “ERK 1/2 activation, AT1R (p-ERK1/2 over ERK1/2, fold over basal)” value ([3]; Log [Comp 21] (M) -6) was 81.7633 percent compared to DMSO and 93.0329 percent compared to DMSO and 113.57 percent compared to DMSO. The “ERK 1/2 activation, AT1R (p-ERK1/2 over ERK1/2, fold over basal)” value ([3]; Log [Comp 21] (M) -6.3) was 97.88 percent compared to DMSO and 83.5696 percent compared to DMSO and the “ERK 1/2 activation, AT1R (p-ERK1/2 over ERK1/2, fold over basal)” value ([3]; Log [Comp 21] (M) -7) was 100 percent compared to DMSO.

In the case of `CCCC(=O)N1CCN(c2ccc(NC(=O)c3cc4ccccc4o3)cc2Cl)CC1` [Compound 21.8], the “MDA-MB-231 cell proliferation (confluency)” value ([1]; 10 µM) is reported as “inhibited cell proliferation” and the “inhibition of AT1R-mediated ERK1/2 (MAPK) activation (Fig. 8b)” value ([3]; 50 μM) is reported as “maintained its MAPK inhibitory property”.

With `Nn1cnc2scc(-c3ccc(Cc4ccccc4)cc3)c2c1=O` [Barbadin, reference compound] the maximal solubility concentration [2] was 100 µM and the “MAPK promoted by AT1R” value ([3]; Barbadin 100 µM) was “ineffective at blocking MAPK”.
